Reference: patent publication US5824698A, “Antibacterial dibenzimidazole derivatives” (priority 1994, dated 1998)
Converted amounts (≈) assume the structure as drawn. Structures can show the parent of a compound that is named as a salt. Where two headings read alike, the source gives them in different places.

How the values were obtained:
Format in all cases: cell-based
[1] = tested on: E. cloacae P 99; experiment: Antibacterial activity in vitro (MIC, standard agar method); details: Enterobacter cloacae, P99, 20 h, read-out: Minimum inhibitory concentration (MIC)
Description: (§1) The minimum inhibitory concentration (MIC) of the substances investigated against gram-positive and gram-negative strains was determined using standard agar methods. The compounds were dissolved in a small amount of dimethyl sulphoxide, diluted with water and incorporated into liquified DST agar at 50° C. The thus-produced agar plates were used immediately thereafter in the test. The test concentrations lay between 128 and 0.06 μg/ml. The bacterial inoculation solutions were prepared from pre-cultures grown overnight, diluted and applied to the agar surface using an inoculation device (Denley A400). The plates were incubated at 35° C. for 20 hours. The MIC was determined as the lowest concentration of substance which prevented a visible growth. A scarcely visible turbidity and the growth of less than 5 colonies were ignored. The determinations of the antibacterial activities (Tab. 1) were carried out not only for the free bases, but also for the hydrochloride salt of each compound. The same values were obtained within experimental error.

[2] = tested on: E. coli 1346; experiment: as above; details: Escherichia coli, DST agar, 35° C., 20 hours, read-out: Minimum inhibitory concentration (MIC)
Description: as §1

[3] = tested on: S. aureus 101; experiment: as above; details: Staphylococcus aureus, DST agar, 35° C., 20 hours, read-out: Minimum inhibitory concentration (MIC)
Description: as §1

[4] = tested on: E. coli 159 R; experiment: as above; details: Escherichia coli, read-out: Minimum inhibitory concentration (MIC)
Description: as §1

[5] = tested on: Staph. aureus 25923; experiment: as above; details: Staphylococcus aureus, DST agar, 35° C., 20 hours, read-out: Minimum inhibitory concentration (MIC)
Description: as §1

[6] = tested on: Staph. aureus 887; experiment: as above; details: Staphylococcus aureus, DST agar, 35° C., 20 hours, read-out: Minimum inhibitory concentration (MIC)
Description: as §1

[7] = tested on: E. coli K12 KEA-12 (GyrA); experiment: as above; details: Escherichia coli, 20 h, read-out: Minimum inhibitory concentration (MIC)
Description: as §1

[8] = tested on: E. coli 1527 E; experiment: as above; details: Escherichia coli, read-out: Minimum inhibitory concentration (MIC)
Description: as §1

[9] = tested on: P. aeroguinosa 3351; experiment: as above; details: read-out: Minimum inhibitory concentration (MIC)
Description: as §1

[10] = tested on: S. marcescens; experiment: as above; details: Serratia marcescens, read-out: Minimum inhibitory concentration (MIC)
Description: as §1

[11] = tested on: P. aeruginosa 799/61; experiment: as above; details: Pseudomonas aeruginosa, read-out: Minimum inhibitory concentration (MIC)
Description: as §1

[12] = tested on: E. coli B; experiment: as above; details: Escherichia coli, DST agar, 35° C., 20 hours, read-out: Minimum inhibitory concentration (MIC)
Description: as §1

[13] = tested on: E. faecalis 6; experiment: as above; details: read-out: Minimum inhibitory concentration (MIC)
Description: as §1

[14] = tested on: S. haemolyticus 91; experiment: as above; details: Staphylococcus haemolyticus, DST agar, 35° C., 20 hours, read-out: Minimum inhibitory concentration (MIC)
Description: as §1

[15] = tested on: E. coli DC2; experiment: as above; details: Escherichia coli; E. coli DC2; DST agar, 35° C., 20 hours; read-out: Minimum inhibitory concentration (MIC)
Description: as §1

[16] = tested on: E. coli H560; experiment: as above; details: Escherichia coli, read-out: Minimum inhibitory concentration (MIC)
Description: as §1

[17] = tested on: S. aureus 853; experiment: as above; details: Staphylococcus aureus, DST agar, 35° C., 20 hours, read-out: Minimum inhibitory concentration (MIC)
Description: as §1

[18] = tested on: Staph. haemolyticus 75; experiment: as above; details: Staphylococcus haemolyticus, DST agar, 35° C., 20 hours, read-out: Minimum inhibitory concentration (MIC)
Description: as §1

[19] = tested on: E. coli AS-19; experiment: as above; details: Escherichia coli, AS19, DST agar, 35° C., 20 hours, read-out: Minimum inhibitory concentration (MIC)
Description: as §1

[20] = tested on: Helicobacter pylori PH 81; experiment: Antibacterial activity against Helicobacter pylori in vitro (MIC, agar method); details: PH81, H. pylori PH 81, Muller-Hinton agar, 5% sheep blood, incubation 7 days, read-out: Minimum inhibitory concentration (MIC)
Description: as §1
(§2) The antibacterial activities against Helicobacter pylori were carried out analogously to the method described above with the following variations: The compounds were incorporated into Muller-Hinton agar containing 5% sheep blood additive. The test concentrations lay between 10 and 0.1 μg/ml. […]

[21] = tested on: Helicobacter pylori K 1585; experiment: as above; details: K1585, H. pylori K 1585, Muller-Hinton agar, 5% sheep blood, incubation 4 days, read-out: Minimum inhibitory concentration (MIC)
Description: as §1, §2

[22] = tested on: E. coli 25922; experiment: Antibacterial activity in vitro (MIC, standard agar method); details: Escherichia coli; E. coli 25922; DST agar, 35° C., 20 hours; read-out: Minimum inhibitory concentration (MIC)
Description: as §1

[23] = tested on: P. aeroginosa BA; experiment: as above; details: DST agar, 35° C., 20 hours, read-out: Minimum inhibitory concentration (MIC)
Description: as §1

[24] = tested on: K. oxytoca 1082E; experiment: as above; details: Klebsiella oxytoca, DST agar, 35° C., 20 hours, read-out: Minimum inhibitory concentration (MIC)
Description: as §1

[25] = tested on: B. subtilis ATCC 585369; experiment: as above; details: Bacillus subtilis, ATCC585369, DST agar, 35° C., 20 hours, read-out: Minimum inhibitory concentration (MIC)
Description: as §1

[26] = E. coli 159 R, DST agar, 35° C., 20 hours
[27] = Enterococcus faecalis, E. faecalis 6, DST agar, 35° C., 20 hours

Row | Compound | MIC [1] | MIC [2] | MIC [3] | MIC [4, 26] | MIC [5] | MIC [6] | MIC [7] | MIC [12] | MIC [13, 27] | MIC [14] | MIC [15] | MIC [17] | MIC [18] | MIC [19] | MIC [20] | MIC [21] | MIC [22] | MIC ([9]; 20 h) | MIC ([11]; 799/61, 20 h) | MIC [23] | further results
1 | Oc1ccc(-c2nc3ccc(-c4ccc5nc(-c6ccc(O)c(F)c6)[nH]c5c4)cc3[nH]2)cc1F [Example 1, 2-Fluoro-4-[2'-(3-fluoro-4-hydroxy-phenyl)-6,6'-dibenzimidazol-2-yl]-phenol] | > 64 µg/mL | 32 µg/mL (≈ 70.4 µM) | 8 µg/mL (≈ 17.6 µM) | 8 µg/mL (≈ 17.6 µM) | 8 µg/mL (≈ 17.6 µM) | 16 µg/mL (≈ 35.2 µM) | > 64 µg/mL | > 64 µg/mL | 2 µg/mL (≈ 4.4 µM) | 8 µg/mL (≈ 17.6 µM) | > 64 µg/mL | 16 µg/mL (≈ 35.2 µM) | 0.25 µg/mL (≈ 0.55 µM) | > 64 µg/mL |  |  |  |  |  |  | MIC ([8]; E. coli 1527 E, DST agar, 35° C., 20 hours): > 64 µg/mL; MIC ([9]; P. aeroguinosa 3351, DST agar, 35° C., 20 hours): > 64 µg/mL; MIC ([10]; S. marcescens, DST agar, 35° C., 20 hours): > 64 µg/mL; MIC ([11]; P. aeruginosa 799/61, DST agar, 35° C., 20 hours): > 64 µg/mL; MIC ([16]; E. coli H560, DST agar, 35° C., 20 hours): 8 µg/mL (≈ 17.6 µM)
2 | Oc1ccc(-c2nc3ccc(-c4ccc5nc(-c6ccc(O)cc6)[nH]c5c4)cc3[nH]2)cc1 [Example 5, 4-[2'-(4-Hydroxy-phenyl)-6,6'-dibenzimidazol-2-yl)-phenol hydrochloride] | > 128 µg/mL | ≤ 0.12 µg/mL | > 32 µg/mL | > 4 µg/mL | ≤ 0.12 µg/mL | ≤ 0.12 µg/mL | > 128 µg/mL | ≤ 0.12 µg/mL |  | 0.12 µg/mL | ≤ 0.12 µg/mL | 0.25 µg/mL | ≤ 0.06 µg/mL | 0.25 µg/mL | < 0.1 µg/mL | 1 µg/mL | > 128 µg/mL | > 128 µg/mL | > 128 µg/mL | > 128 µg/mL | MIC ([8]; 1527E, 20 h): > 128 µg/mL; MIC ([10]; 20 h): > 128 µg/mL; MIC ([13]; Enterococcus faecalis, 6, 20 h): ≤ 0.06 µg/mL; MIC ([16]; H560, 20 h): > 128 µg/mL; MIC [24]: > 128 µg/mL; MIC [25]: ≤ 0.12 µg/mL
3 | CCOc1ccc(-c2nc3ccc(-c4ccc5nc(-c6ccc(O)cc6)[nH]c5c4)cc3[nH]2)cc1 [Example 11, 4-[2'-(4-Ethoxy-phenyl)-6,6'-dibenzimidazol-2-yl]-phenol] | > 128 µg/mL | 0.25 µg/mL (≈ 0.56 µM) | 0.5 µg/mL (≈ 1.12 µM) |  | 0.25 µg/mL (≈ 0.56 µM) | 0.25 µg/mL (≈ 0.56 µM) | > 128 µg/mL | 0.5 µg/mL (≈ 1.12 µM) | 0.5 µg/mL (≈ 1.12 µM) |  | 1 µg/mL (≈ 2.24 µM) | 0.25 µg/mL (≈ 0.56 µM) | 0.12 µg/mL (≈ 0.269 µM) | 0.5 µg/mL (≈ 1.12 µM) | < 0.1 µg/mL | 1 µg/mL (≈ 2.24 µM) | > 128 µg/mL | > 128 µg/mL | > 128 µg/mL | > 128 µg/mL | MIC ([4]; 159R, 20 h): > 128 µg/mL; MIC ([16]; H560, 20 h): > 128 µg/mL; MIC [24]: > 128 µg/mL; MIC [25]: 0.25 µg/mL (≈ 0.56 µM)
